Reference: US20240035033A1, “PREVENTION AND TREATMENT OF AGE-RELATED MACULAR DEGENERATION THROUGH SUPPRESSION OF CATHEPSIN S EXPRESSION” (CHUNG-ANG UNIVERSITY INDUSTRY-ACADEMIC COOPERATION …, priority 2022, published 2024)

How the values were obtained:
Type in all cases: cell-based, human
[1] = tested on: C3a and C5a; test: immunofluorescence analysis of C3a and C5a expression in RPE cells; settings: siRNA 24 hours, Bay 1170-82 10 μM, control DMSO / control siRNA
Protocol: In order to confirm the inhibitory effect of complement activity in the case of treatment with an inhibitor of cathepsin S expression or activity, RPE cells were treated with cathepsin S siRNA (CTSS siRNA, CTSSiRNA) and then the effect of inhibiting complement activity was analyzed. At this time, NF-κB inhibitor were treated as a comparison group. Specifically, RPE cells were treated with control siRNA or CTSS siRNA for 24 hours in the presence or absence of NF-κB inhibitor Bay 1170-82 (10 μM), respectively. After that, immunofluorescence analysis was performed for the expression of C3a and C5a in RPE cells. Experimental methods and conditions were applied in the same manner as in Example 3.

[2] = tested on: HUVECs; test: tube formation of HUVECs treated with conditioned medium of RPE cells; settings: conditioned medium of H2O2-treated control RPE cells, 2 hours
From the text: (§1) In the case of treatment with an inhibitor of cathepsin S expression or activity, it was confirmed whether angiogenesis in RPE cells induced by oxidative stress was reduced. Specifically, the expression levels of PPARγ and VEGFA/AKT, which play key roles in neovascularization, differentiation, migration, and proliferation, were confirmed through western blotting experiments, and the experimental methods and conditions were applied in the same manner as in Example 2. In addition, to confirm the presence or absence of cell tube formation, HUVECs (1×10^5) were treated on a Matrigel-coated 96-well-plate with reduced growth factors, and then the cells were treated with a conditioned medium (CM) for 2 hours by treating RPE cells with CTSS siRNA and H2O2 at 37° C. for 48 hours, and images were analyzed with an inverted fluorescence microscope.

[3] = tested on: ARPE-19 cells; test: MTT viability of RPE cells according to H2O2 treatment; settings: H2O2 6.25-100 μM, 48 hours, compared to the control
Protocol: In order to confirm the decrease in viability of retinal pigment epithelium cells (RPE cells, hereinafter referred to as RPE cells) according to H2O2 treatment, MTT analysis was performed, and the viability and iNOS expression of RPE cells according to H2O2 treatment were confirmed.
First, a human retinal-pigmented epithelial cell line (hereinafter referred to as ARPE-19 cells (ATCC, Manassas, VA, USA)) was used and inoculated into 96-well plates and cultured for 24 hours. Thereafter, the cells were treated with 6.25 μM 12.5 μM, 25 μM, 50 μM, and 100 μM H2O2 for 48 hours, a 3-(4,5-dimethylthiazol-2-yl)-2,5-diphenyl-tetrazolium bromide (MTT) solution was added to the medium, and the cells were cultured at 37° C. for 4 hours. The MTT-comprising medium was removed and the cells were lysed in 50 μl of DMSO. An optical density at 540 nm was confirmed using a microplate spectrophotometer (SpectraMax; Molecular Devices, Sunnyvale, CA, USA), and cell viability was determined by repeating each experiment three times to calculate an average value.

[4] = tested on: PPARγ and VEGFA/AKT; test: western blot of angiogenic factors in RPE cells; settings: RPE cells treated with H2O2
From the text: as §1

[5] = tested on: iNOS; test: iNOS expression in RPE cells according to H2O2 treatment (RT-PCR, western blot)
Protocol: In addition, the expression level of iNOS expressed in RPE cells according to H2O2 treatment was analyzed. Specifically, after RPE cells were treated with 10 μM, 50 μM, and 100 μM H2O2, relative iNOS mRNA expression levels were confirmed, and western blot experiments were performed. Total RNA was prepared using a Ribospin™ II kit from GeneAll Biotechnology (Seoul, South Korea) according to the manufacturer's recommendations. Total RNA (1 μg) was reverse transcribed into first-strand cDNA using an iScript™ cDNA Synthesis kit (Bio-Rad Laboratories, Inc., California, USA) according to the manufacturer's instructions, real-time reverse transcription-polymerase chain reaction (RT-PCR) was performed using a Thermal Cycler CFX96™ Real-Time PCR System (Bio-Rad Laboratories, USA), and each experiment was repeated three times to derive the results. RPE cells were washed with ice-cold PBS and then extracted with a protein lysis buffer (Intron Biotechnology, Seoul, South Korea). Protein samples of cell lysates were mixed with an equal volume of 2×SDS sample buffer, denatured by heating for 5 minutes and then separated on a 10% SDS-PAGE gel. After electrophoresis, proteins were transferred to a polyvinylidene difluoride membrane, and the membrane was blocked and washed using 5% BSA for 40 minutes. […]

[6] = tested on: cathepsin S (CTSS); test: cathepsin S expression in RPE cells under oxidative stress (mRNA, western blot)
Protocol: To confirm the expression of cathepsin S (CTSS) in RPE cells under oxidative stress conditions, RPE cells were treated with H2O2 and the expression of cathepsin S (CTSS) was determined. Specifically, the cells was treated with 10 μM and 50 μM H2O2, cathepsin S mRNA expression level analysis and western blot experiments were performed in order to confirm the expression of cathepsin S, and the same experimental method and conditions as in Example 1 were applied, except that cathepsin S-specific antibodies were used.

[7] = tested on: cathepsin S (CTSS); test: immunofluorescence analysis of cathepsin S in RPE cells; settings: H2O2 50 μM, 48 hours
Protocol: Immunofluorescence analysis was performed to confirm the suppression of cathepsin S in cathepsin S knockdown RPE cells of Example 3-1. Specifically, after cells prepared in the same manner as in the mRNA expression level analysis were washed twice with sterile PBS and fixed with 4% paraformaldehyde at room temperature for 30 minutes, the fixation was stopped by washing the cells three times with PBS. The cells were permeabilized with PBS comprising 0.01% Triton X-100 […]. After blocking for 1 hour, the insert membrane was removed using a scalpel and placed on Parafilm prior to being incubated with a primary antibody (depending on the protein of interest). All primary antibodies were diluted 1:50 in 5% BSA and PBS and used, and cultured at 4° C. overnight. Thereafter, the cells were washed three times with PBS and a secondary FITC- or TRITC-conjugated antibody was diluted 1:50 and applied at room temperature for 1 hour. After 1 mg/ml DAPI was added 10 minutes before removing a secondary antibody to stain the nuclei, the cells were coated with a mounting medium and a glass coverslip was placed on top. The membrane/coverslip was fixed to the glass slide using a mounting medium, and cells were observed under a fluorescence microscope (Leica DFC7000T).

Compound | expression of C3a (immunofluorescence) [1] | expression of C5a (immunofluorescence) [1] | tube formation [2] | cell viability (MTT) [3] | expression level of PPARγ (western blot) [4] | expression level of VEGFA/AKT (p-AKT) (western blot) [4] | relative iNOS mRNA levels ([5]; RPE cells, 50 μM and 100 μM H2O2) | iNOS protein (western blot) ([5]; RPE cells, 10, 50, 100 μM H2O2) | cathepsin S protein band (western blot) ([6]; 10 μM and 50 μM H2O2) | relative mRNA level of cathepsin S ([6]; 10 μM and 50 μM H2O2, vs control) | cathepsin S expression (red fluorescence) [7]
Cc1ccc(S(=O)(=O)/C=C/C#N)cc1 [Bay 1170-82] | suppressed | suppressed |  |  |  |  |  |  |  |  | 
OO [H2O2] |  |  | marked increase in tube formation | decrease in cell viability | increased | increased | increased | increased in a H2O2 concentration-dependent manner | appeared thick and dark | higher than that of the control | significantly increased
